Like-named read-outs stand apart in the source and are kept apart here.
How the values were obtained:
[1] = target: T1, β-kinase domain of the human insulin receptor (CKD) (Homo sapiens, UniProt P06213); assay: 32P-cytoplasmic kinase domain (CKD) autophosphorylation assay; assay type: biochemical; conditions: phosphorylation of CKD expressed as % of the vehicle level; 10 minutes at room temperature; compound concentration not given
T1 construct: The complete β-kinase domain of the human insulin receptor (CKD) was expressed in, and purified from, baculovirus; made in house
T1 sequence (P06213 980-1382 limits assumed): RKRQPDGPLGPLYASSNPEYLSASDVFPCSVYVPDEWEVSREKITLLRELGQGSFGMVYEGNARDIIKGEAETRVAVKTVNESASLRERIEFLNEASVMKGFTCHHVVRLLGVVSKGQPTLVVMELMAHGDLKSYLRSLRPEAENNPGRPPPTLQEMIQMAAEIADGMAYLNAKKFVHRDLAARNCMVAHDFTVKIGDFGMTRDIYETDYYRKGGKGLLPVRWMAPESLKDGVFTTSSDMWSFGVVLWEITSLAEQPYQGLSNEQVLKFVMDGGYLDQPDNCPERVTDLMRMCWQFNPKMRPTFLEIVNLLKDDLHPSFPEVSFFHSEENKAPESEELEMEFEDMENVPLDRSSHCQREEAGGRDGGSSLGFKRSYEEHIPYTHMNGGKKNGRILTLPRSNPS
Protocol: ^32P-cytoplasmic Kinase Domain (CKD) Autophosphorylation Assay The insulin signaling pathway is activated through stimulation of the insulin receptor. A major component of this activation is the phosphorylation of a specific portion of the receptor called the β-kinase domain. The complete β-kinase domain of the human insulin receptor (CKD) was expressed in, and purified from, baculovirus. CKD (4.0μg/ml), in a solution of 29 mM HEPES (pH 7.6), 0.05% Triton X-100, 10 mM MgCl2, 2 mM MnCl2 (50 μl final volume), was combined with 50 μM ATP, and 5 μCi ^32P-ATP (3000Ci/mmol.). A test compound, or the vehicle (dimethyl sulfoxide (DMSO)) was added to a final DMSO concentration of 1%. The mixture was incubated for 10 minutes at room temperature. The reaction was terminated by the addition of 10 μl 200 mM EDTA. A 30 μl volume was removed, mixed with 5 μl of 6× Laemmeli sodium dodecyl sulfate (SDS) treatment buffer, and heated to 94° C. for 5 minutes. A 20 μl aliquot was then run an SDS-PAGE gel. The radioactivity incorporated into the CKD band was quantified by phosphorimaging of the gel, or scintillation counting of the excised bands. The potency of a compound for increasing phosphorylation was expressed as % of the vehicle level.

[2] = test system: 3T3 L1 fibroblasts; assay: Glucose transport activity assay (14C-2-deoxy-D-glucose uptake); assay type: cell-based; conditions: EC (effective concentration) for increase in glucose transport, 14C-2-deoxy-D-glucose, 3T3 L1 cells, read-out: Concentration (μM) to reach >150% activity of vehicle control
How it was run: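 Differentiated 3T3 L1 adipocytes (IBMX/dexamethasone/insulin induction), serum-starved overnight, preincubated 30 min at 37 °C with compound ± insulin in pH 7.4 salt buffer, then 30 min with 5 μCi/ml 14C-2-deoxy-D-glucose. Lysate radioactivity counted; EC = concentration raising uptake above 150% of vehicle control.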

Row | Compound | EC (150% of vehicle control) ([2]; Mus musculus) | EC (150% of vehicle control) [2] | further results
1 | Cc1ccc(OS(=O)(=O)c2cccc(NS(=O)(=O)c3ccc4ccc(NC(=O)Nc5ccc6ccc(S(=O)(=O)Nc7cccc(S(=O)(=O)Oc8ccc(C)cc8)c7)cc6c5)cc4c3)c2)cc1 [Compound 9, 4-methylphenyl 3-[({7-[(N-{7-[({3-[(4-methylphenyl)oxysulfonyl]phenyl}amino)sulfonyl]-2-naphthyl}carbamoyl)amino]-2-naphthyl}sulfonyl)amino]benzenesulfonate] | – | – | % Activity vs. Control [1]: 118%
2 | Cc1ccc(OS(=O)(=O)c2cccc(NS(=O)(=O)c3cc(O)c4ccc(NC(=O)Nc5ccc6c(O)cc(S(=O)(=O)Nc7cccc(S(=O)(=O)Oc8ccc(C)cc8)c7)cc6c5)cc4c3)c2)cc1 [Compound 11, 4-methylphenyl 3-[({4-hydroxy-7-[(N-{5-hydroxy-7-[({3-[(4-methylphenyl)oxysulfonyl]phenyl}amino)sulfonyl](2-naphthyl)}carbamoyl)amino]-2-naphthyl}sulfonyl)amino]benzenesulfonate] | – | – | % Activity vs. Control [1]: 96%
3 | O=C(Nc1ccc2ccc(C(=O)Nc3cccc(C(=O)O)c3)cc2c1)Nc1ccc2ccc(C(=O)Nc3cccc(C(=O)O)c3)cc2c1 [Compound 116, 3-({7-[({7-[N-(3-carboxyphenyl)carbamoyl]-2-naphthyl}amino)carbonylamino]-2-naphthyl}carbonylamino)benzoic acid] | > 32 µM | – | –
4 | O=C(Nc1ccc2ccc(NS(=O)(=O)c3cccc(C(=O)O)c3)cc2c1)Nc1ccc2ccc(NS(=O)(=O)c3cccc(C(=O)O)c3)cc2c1 [Compound 129, 3-{[(7-{[N-(7-{[(3-carboxyphenyl)sulfonyl]amino}-2-naphthyl)carbamoyl]amino}-2-naphthyl)amino]sulfonyl}benzoic acid] | 32 µM | – | –
5 | COC(=O)c1cc(NS(=O)(=O)c2ccc3ccc(NC(=S)Nc4ccc5ccc(S(=O)(=O)Nc6ccc(Cl)c(C(=O)OC)c6)cc5c4)cc3c2)ccc1Cl [Compound 157, methyl 2-chloro-5-[({7-[({[7-({[4-chloro-3-(methoxycarbonyl)phenyl]amino}sulfonyl)(2-naphthyl)]amino}thioxomethyl)amino](2-naphthyl)}sulfonyl)amino]benzoate] | > 32 µM | – | –
6 | COC(=O)c1cc(NS(=O)(=O)c2ccc3ccc(/N=C(/Nc4ccc5ccc(S(=O)(=O)Nc6ccc(Cl)c(C(=O)OC)c6)cc5c4)SC)cc3c2)ccc1Cl [Compound 158, methyl 5-({[7-((1Z)-1-aza-2-{[7-({[4-chloro-3-(methoxycarbonyl)phenyl]amino}sulfonyl)(2-naphthyl)]amino}-2-methylthiovinyl)(2-naphthyl)]sulfonyl}amino)-2-chlorobenzoate] | > 32 µM | – | –
7 | CN=C(Nc1ccc2ccc(NS(=O)(=O)c3ccc(Cl)c(C(=O)OC)c3)cc2c1)Nc1ccc2ccc(NS(=O)(=O)c3ccc(Cl)c(C(=O)OC)c3)cc2c1 [Compound 161, methyl 5-[({7-[((1E)-2-aza-1-{[7-({[4-chloro-3-(methoxycarbonyl)phenyl]sulfonyl}amino)(2-naphthyl)]amino}prop-1-enyl)amino](2-naphthyl)}amino)sulfonyl]-2-chlorobenzoate] | – | >32 µM | –
8 | CN=C(Nc1ccc2ccc(NS(=O)(=O)c3ccc(Cl)c(C(=O)O)c3)cc2c1)Nc1ccc2ccc(NS(=O)(=O)c3ccc(Cl)c(C(=O)O)c3)cc2c1 [Compound 162, 5-({[7-({(1E)-2-aza-1-[(7-{[(3-carboxy-4-chlorophenyl)sulfonyl]amino}(2-naphthyl))amino]prop-1-enyl}amino)(2-naphthyl)]amino}sulfonyl)-2-chlorobenzoic acid] | – | >32 µM | –
9 | COC(=O)c1cc(S(=O)(=O)Nc2ccc3ccc(NC(=NC#N)Nc4ccc5ccc(NS(=O)(=O)c6ccc(Cl)c(C(=O)OC)c6)cc5c4)cc3c2)ccc1Cl [Compound 165, methyl 5-[({7-[((1E)-2-aza-1-{[7-({[4-chloro-3-(methoxycarbonyl)phenyl]sulfonyl}amino)(2-naphthyl)]amino}-2-cyanovinyl)amino](2-naphthyl)}amino)sulfonyl]-2-chlorobenzoate] | – | 3.2 µM | –
10 | N#CN=C(Nc1ccc2ccc(NS(=O)(=O)c3ccc(Cl)c(C(=O)O)c3)cc2c1)Nc1ccc2ccc(NS(=O)(=O)c3ccc(Cl)c(C(=O)O)c3)cc2c1 [Compound 166, 5-({[7-({(1E)-2-aza-1-[(7-{[(3-carboxy-4-chlorophenyl)sulfonyl]amino}(2-naphthyl))amino]-2-cyanovinyl}amino)(2-naphthyl)]amino}sulfonyl)-2-chlorobenzoic acid] | – | 3.2 µM | –
11 | C=CCN=C(Nc1ccc2ccc(NS(=O)(=O)c3ccc(Cl)c(C(=O)OC)c3)cc2c1)Nc1ccc2ccc(NS(=O)(=O)c3ccc(Cl)c(C(=O)OC)c3)cc2c1 [Compound 167, methyl 5-[({7-[((1E)-2-aza-1-{[7-({[4-chloro-3-(methoxycarbonyl)phenyl]sulfonyl}amino)(2-naphthyl)]amino}penta-1,4-dienyl)amino](2-naphthyl)}amino)sulfonyl]-2-chlorobenzoate] | – | >32 µM | –
12 | C=CCN=C(Nc1ccc2ccc(NS(=O)(=O)c3ccc(Cl)c(C(=O)O)c3)cc2c1)Nc1ccc2ccc(NS(=O)(=O)c3ccc(Cl)c(C(=O)O)c3)cc2c1 [Compound 168, 5-({[7-({(1E)-2-aza-1-[(7-{[(3-carboxy-4-chlorophenyl)sulfonyl]amino}(2-naphthyl))amino]penta-1,4-dienyl}amino)(2-naphthyl)]amino}sulfonyl)-2-chlorobenzoic acid] | – | >32 µM | –
13 | O=C(Nc1ccc2cc(S(=O)(=O)Nc3cccc(S(=O)(=O)O)c3)ccc2c1)Nc1ccc2cc(S(=O)(=O)Nc3cccc(S(=O)(=O)O)c3)ccc2c1 [Compound 169, 3-{[(6-{[(6-{[(3-sulfophenyl)amino]sulfonyl}-2-naphthyl)amino]carbonylamino}-2-naphthyl)sulfonyl]amino}benzenesulfonic acid] | 3.2 µM | – | –
14 | O=C(Nc1ccc2cc(S(=O)(=O)Nc3cccc(C(=O)O)c3)ccc2c1)Nc1ccc2cc(S(=O)(=O)Nc3cccc(C(=O)O)c3)ccc2c1 [Compound 171, 3-{[(6-{[(6-{[(3-carboxyphenyl)amino]sulfonyl}-2-naphthyl)amino]carbonylamino}-2-naphthyl)sulfonyl]amino}benzoic acid] | 3.2 µM | – | –
15 | O=C(Nc1ccc2cc(S(=O)(=O)Nc3ccc(C(=O)O)cc3)ccc2c1)Nc1ccc2cc(S(=O)(=O)Nc3ccc(C(=O)O)cc3)ccc2c1 [Compound 173, 4-{[(6-{[(6-{[(4-carboxyphenyl)amino]sulfonyl}-2-naphthyl)amino]carbonylamino}-2-naphthyl)sulfonyl]amino}benzoic acid] | 3.2 µM | – | –
16 | O=C(Nc1ccc2cc(S(=O)(=O)Nc3cc(C(=O)O)cc(C(=O)O)c3)ccc2c1)Nc1ccc2cc(S(=O)(=O)Nc3cc(C(=O)O)cc(C(=O)O)c3)ccc2c1 [Compound 175, 5-{[(6-{[(6-{[(3,5-dicarboxyphenyl)amino]sulfonyl}-2-naphthyl)amino]carbonylamino}-2-naphthyl)sulfonyl]amino}benzene-1,3-dicarboxylic acid] | 3.2 µM | – | –
17 | O=C(Nc1ccc2cc(S(=O)(=O)Nc3c(F)c(F)cc(C(=O)O)c3F)ccc2c1)Nc1ccc2cc(S(=O)(=O)Nc3c(F)c(F)cc(C(=O)O)c3F)ccc2c1 [Compound 177, 3-{[(6-{[(6-{[(3-carboxy-2,5,6-trifluorophenyl)amino]sulfonyl}(2-naphthyl))amino]carbonylamino}(2-naphthyl))sulfonyl]amino}-2,4,5-trifluorobenzoic acid] | > 32 µM | – | –
18 | O=C(O)Cc1ccc(NS(=O)(=O)c2ccc3cc(NC(=O)Nc4ccc5cc(S(=O)(=O)Nc6ccc(CC(=O)O)cc6)ccc5c4)ccc3c2)cc1 [Compound 179, 2-[4-({[6-({N-[6-({[4-(carboxymethyl)phenyl]amino}sulfonyl)-2-naphthyl]carbamoyl}amino)-2-naphthyl]sulfonyl}amino)phenyl]acetic acid] | > 32 µM | – | –
19 | O=C(Nc1ccc2cc(S(=O)(=O)N3CCCC(C(=O)O)C3)ccc2c1)Nc1ccc2cc(S(=O)(=O)N3CCCC(C(=O)O)C3)ccc2c1 (centres unmarked) [Compound 181, 1-({6-[({6-[(3-carboxypiperidyl)sulfonyl]-2-naphthyl}amino)carbonylamino]-2-naphthyl}sulfonyl)piperidine-3-carboxylic acid] | 3.2 µM | – | –
20 | methyl 2-chloro-5-[({7-[({[7-({[4-chloro-3-(methoxycarbonyl)phenyl]amino}sulfonyl)(2-naphthyl)]amino}iminomethyl)amino](2-naphthyl)}sulfonyl)amino]benzoate [Compound 159] | – | 3.2 µM | –

From patent US7071231B2, “Naphthalene ureas as glucose uptake enhancers” (Telik, Inc., priority 1999, dated 2006)
